Reference: paper PMC5430831 (Acta Pharmaceutica Sinica. B, 2017)
Read-outs that look alike come from different tables or passages of the source. Blank lines part the entries; values can stand above or below the molecule they belong to.

What was measured:
CHK2 = CHK2 (Homo sapiens, UniProt O96017); test: Radioactive filter binding kinase assay, CHK2; type: biochemical
VEGFR1 = VEGFR1 (Homo sapiens, UniProt P17948); test: Radioactive filter binding kinase assay, VEGFR1; type: biochemical
HL-60 cells [1] = test: LDH release assay; type: cell-based, Human
MOLT-4 cells = MOLT-4 cells ref 16; cited from earlier work
Aurora B = Aurora B (Homo sapiens, UniProt Q96GD4); test: Radioactive filter binding kinase assay, Aurora B; conditions: read-out: percent inhibition Aurora B
Aurora B, sequence (Q96GD4 whole entry): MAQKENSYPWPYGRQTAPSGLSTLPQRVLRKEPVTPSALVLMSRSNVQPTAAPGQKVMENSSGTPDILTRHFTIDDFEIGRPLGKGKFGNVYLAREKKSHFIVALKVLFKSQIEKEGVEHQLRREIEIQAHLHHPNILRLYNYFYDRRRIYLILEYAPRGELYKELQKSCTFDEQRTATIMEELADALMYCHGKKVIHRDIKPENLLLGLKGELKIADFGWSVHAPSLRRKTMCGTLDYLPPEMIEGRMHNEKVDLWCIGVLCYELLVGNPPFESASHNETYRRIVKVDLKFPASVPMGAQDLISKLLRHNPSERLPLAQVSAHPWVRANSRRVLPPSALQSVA

HL-60 cells [2] = test: Drug accumulation assay; type: cell-based, Human; conditions: HL-60, 2 h incubation, emission 446 nm
HL-60 cells [3] = test: Annexin V-FITC/propidium iodide labeling, confocal imaging; type: cell-based, Human; conditions: HL-60, 5 and 10 μmol/L, 48 h
HL-60 cells [4] = test: Mitochondrial membrane potential measurement; type: cell-based, Human; conditions: HL-60, 10 μmol/L, JC-1, from 6 h
caspase-3 = test: Caspase-3 colorimetric activity assay; type: cell-based, Human; conditions: HL-60, 10 μmol/L, 48 h
HL-60 cells [5] = test: Cell cycle analysis by flow cytometry; type: cell-based, Human
MNK2 = MNK2 (Homo sapiens, UniProt Q9HBH9); test: Radioactive filter binding kinase assay, MNK2; conditions: read-out: percent inhibition MNK2
MNK2, sequence (Q9HBH9 whole entry, species assumed): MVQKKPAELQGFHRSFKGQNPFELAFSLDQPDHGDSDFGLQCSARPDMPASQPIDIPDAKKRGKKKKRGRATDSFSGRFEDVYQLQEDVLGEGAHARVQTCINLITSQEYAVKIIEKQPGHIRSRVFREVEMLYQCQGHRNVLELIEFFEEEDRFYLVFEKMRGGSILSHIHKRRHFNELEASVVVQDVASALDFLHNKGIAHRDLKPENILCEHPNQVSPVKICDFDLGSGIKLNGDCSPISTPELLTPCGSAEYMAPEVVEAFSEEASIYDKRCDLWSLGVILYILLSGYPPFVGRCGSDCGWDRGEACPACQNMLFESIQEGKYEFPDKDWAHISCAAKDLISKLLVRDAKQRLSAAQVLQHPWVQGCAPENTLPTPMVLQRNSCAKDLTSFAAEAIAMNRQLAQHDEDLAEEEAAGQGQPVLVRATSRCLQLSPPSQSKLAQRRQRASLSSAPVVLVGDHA

[6] = read-out: IC50 CHK2, mean±SD (n=3)
[7] = read-out: IC50 VEGFR1, mean±SD (n=3)

VEGFR1, sequence (P17948 27-1338, species assumed): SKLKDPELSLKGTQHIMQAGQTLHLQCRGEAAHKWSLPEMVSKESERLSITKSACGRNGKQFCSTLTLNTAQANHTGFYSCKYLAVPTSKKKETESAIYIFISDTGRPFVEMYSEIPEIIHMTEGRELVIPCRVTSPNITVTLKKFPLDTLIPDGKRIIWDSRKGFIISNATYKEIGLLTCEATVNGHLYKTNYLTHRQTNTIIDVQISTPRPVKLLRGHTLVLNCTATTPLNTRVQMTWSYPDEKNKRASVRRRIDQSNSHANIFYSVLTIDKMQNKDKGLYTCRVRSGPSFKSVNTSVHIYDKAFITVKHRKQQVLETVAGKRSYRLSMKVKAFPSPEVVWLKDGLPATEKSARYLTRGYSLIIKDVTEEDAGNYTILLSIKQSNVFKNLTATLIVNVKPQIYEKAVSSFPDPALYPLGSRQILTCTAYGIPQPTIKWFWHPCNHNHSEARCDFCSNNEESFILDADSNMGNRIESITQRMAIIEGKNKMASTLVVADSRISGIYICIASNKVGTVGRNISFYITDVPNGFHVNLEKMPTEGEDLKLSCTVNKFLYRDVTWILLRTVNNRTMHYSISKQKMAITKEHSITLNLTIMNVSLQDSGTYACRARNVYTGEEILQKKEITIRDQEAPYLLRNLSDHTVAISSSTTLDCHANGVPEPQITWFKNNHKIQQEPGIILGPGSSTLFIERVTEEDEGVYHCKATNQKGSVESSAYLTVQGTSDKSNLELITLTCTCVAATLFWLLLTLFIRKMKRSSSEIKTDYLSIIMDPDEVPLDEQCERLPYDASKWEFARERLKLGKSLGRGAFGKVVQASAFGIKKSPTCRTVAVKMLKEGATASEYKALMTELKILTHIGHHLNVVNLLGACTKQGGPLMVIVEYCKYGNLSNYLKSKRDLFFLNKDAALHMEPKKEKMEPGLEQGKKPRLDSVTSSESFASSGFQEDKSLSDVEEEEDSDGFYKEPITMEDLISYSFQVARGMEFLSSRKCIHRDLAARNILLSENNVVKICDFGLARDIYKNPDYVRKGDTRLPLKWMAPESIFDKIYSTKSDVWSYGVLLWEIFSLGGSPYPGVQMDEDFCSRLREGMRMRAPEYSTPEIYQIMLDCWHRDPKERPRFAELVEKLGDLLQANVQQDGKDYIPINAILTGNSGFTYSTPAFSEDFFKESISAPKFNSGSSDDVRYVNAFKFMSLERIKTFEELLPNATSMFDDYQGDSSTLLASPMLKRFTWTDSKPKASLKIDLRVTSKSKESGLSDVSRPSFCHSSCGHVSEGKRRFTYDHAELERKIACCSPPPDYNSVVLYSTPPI
CHK2, sequence (O96017 whole entry, species assumed): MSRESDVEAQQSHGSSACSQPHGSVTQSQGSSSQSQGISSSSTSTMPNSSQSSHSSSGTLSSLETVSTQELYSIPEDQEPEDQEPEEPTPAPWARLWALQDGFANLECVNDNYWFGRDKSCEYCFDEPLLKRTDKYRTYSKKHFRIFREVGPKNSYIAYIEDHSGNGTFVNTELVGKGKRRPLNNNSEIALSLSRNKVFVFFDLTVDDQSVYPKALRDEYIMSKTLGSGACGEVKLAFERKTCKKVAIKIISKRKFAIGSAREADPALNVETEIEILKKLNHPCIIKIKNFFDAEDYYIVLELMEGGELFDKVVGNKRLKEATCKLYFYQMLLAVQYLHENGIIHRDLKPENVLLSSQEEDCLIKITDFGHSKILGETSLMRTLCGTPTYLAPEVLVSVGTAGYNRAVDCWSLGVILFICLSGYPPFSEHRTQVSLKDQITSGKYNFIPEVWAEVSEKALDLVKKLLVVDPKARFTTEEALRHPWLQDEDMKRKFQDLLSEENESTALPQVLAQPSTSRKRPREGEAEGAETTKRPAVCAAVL

IC50 (CHK2): 81 ± 19 nM | IC50 (VEGFR1): 42 ± 12 nM
SMILES: O=C1Nc2ccccc2/C1=C1/Nc2ccccc2C1=O [Indirubin]

IC50 (CHK2; [6]): 1070 ± 210 nM | IC50 (VEGFR1; [7]): 120 ± 14 nM
SMILES: Cn1cc(C2=C(c3cn(CCCSC(=N)N)c4ccccc34)C(=O)NC2=O)c2ccccc21 [Ro318220]

SMILES: COC(=O)[C@@]1(O)C[C@H]2O[C@]1(C)n1c3ccccc3c3c4c(c5c6ccccc6n2c5c31)C(=O)NC4 [K252a]
IC50 (CHK2; [6]): 23 ± 5 nM | IC50 (VEGFR1; [7]): 13 ± 2 nM

activity at 1 µM (CHK2; read-out: percent inhibition CHK2): 40% | activity at 1 µM (Aurora B): 74% | activity at 1 µM (MNK2): 79% | activity at 1 µM (VEGFR1; read-out: percent inhibition VEGFR1): 44%
SMILES: CCCCNc1ncnc2c1sc1nc3ccccc3cc12 [BPTQ, 4-butylaminopyrimido[4′,5′:4,5]thieno(2,3-b)quinoline]
LDH release (HL-60 cells [1]; HL-60, 10 μmol/L): did not induce LDH release | LDH release (HL-60 cells [1]; HL-60, 50 μmol/L): increased the release of LDH | LDH release (HL-60 cells [1]; HL-60, 100 μmol/L): increased the release of LDH | Cell cycle effect (MOLT-4 cells): cell cycle arrest was observed | Intracellular drug uptake (HL-60 cells [2]): dose dependent increase in the intracellular drug uptake | Annexin V-FITC / propidium iodide staining (apoptosis) (HL-60 cells [3]): confirming the induction of apoptosis | Mitochondrial membrane potential (ΔΨm) (HL-60 cells [4]): striking fall in the membrane potential | Increase in caspase-3 activity relative to control (caspase-3): about 2 fold | Sub G0/G1 cells (HL-60 cells [5]; HL-60, 10 μmol/L, 48 h): 47% | Cell cycle arrest (HL-60 cells [5]; HL-60, 48 h): did not induce any cell cycle arrest

IC50 (VEGFR1): 779 ± 173 nM
SMILES: O=c1c(O)c(-c2cc(O)c(O)c(O)c2)oc2cc(O)cc(O)c12 [Myricetin]

IC50 (CHK2): 304 ± 94 nM | IC50 (VEGFR1): 335 ± 74 nM
SMILES: Oc1c2ccccc2c2c3c(cccc13)N=N2 [SP600125]
